Assay results: ChEMBL document CHEMBL3886864, “Heterocyclic resorcinol derivatives, preparation of same and cosmetic uses thereof” (2016)

Molecular target: T1, Polyphenol oxidase 1 (Agaricus bisporus, UniProt Q00024)
T1 sequence (Q00024 whole entry): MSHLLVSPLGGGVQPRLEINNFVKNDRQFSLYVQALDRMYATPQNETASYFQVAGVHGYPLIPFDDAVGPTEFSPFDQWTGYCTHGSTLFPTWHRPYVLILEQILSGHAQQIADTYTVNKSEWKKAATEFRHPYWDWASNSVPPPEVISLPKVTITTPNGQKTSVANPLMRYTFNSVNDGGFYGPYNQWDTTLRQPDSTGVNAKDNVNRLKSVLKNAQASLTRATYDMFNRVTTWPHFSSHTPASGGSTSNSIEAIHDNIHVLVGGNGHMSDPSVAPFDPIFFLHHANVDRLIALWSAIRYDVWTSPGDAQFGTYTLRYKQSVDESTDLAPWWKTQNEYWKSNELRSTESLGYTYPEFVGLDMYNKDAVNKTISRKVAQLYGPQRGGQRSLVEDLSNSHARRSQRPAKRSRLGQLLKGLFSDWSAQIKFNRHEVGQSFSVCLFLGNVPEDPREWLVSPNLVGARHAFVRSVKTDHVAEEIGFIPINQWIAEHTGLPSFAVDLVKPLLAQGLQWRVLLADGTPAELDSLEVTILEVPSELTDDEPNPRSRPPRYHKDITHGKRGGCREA
Assay: Inhibition Assay: Reader: Synergy HT program: tyrosinase 280-490 kinetics: kinetics over 45 minutes, reading at t=10 minutes, Tests in transparent 96-well plates, Phosphate buffer (pH 6.8), Enzyme: mushroom tyrosinase (T-3824, Sigma), Substrate: L-tyrosine (T-3754, Sigma), Positive control: Kojic acid (KA) (60890, Fluka) (reference inhibitor). Reference Molecules for the Test: Kojic acid: …

IC50 [nM]	Compound
80	CC(c1ccsc1)c1ccc(O)cc1O (stereo unspecified)
1000	CCCCc1ccc(O)cc1O [RUCINOL]
200	CC(c1cccnc1)c1ccc(O)cc1O (stereo unspecified)
90	CC(c1cccs1)c1ccc(O)cc1O (stereo unspecified)
400	CC(c1ccccn1)c1ccc(O)cc1O (stereo unspecified)
1500	CC(c1nccs1)c1ccc(O)cc1O (stereo unspecified)
